Measured values as given in patent publication US9062074B2, “(9E)-15-(2-pyrrolidin-1-yl-ethoxy)-7,12,25-trioxa-19,21,24-triaza-tetracyclo[18.3.1.1(2.5).1(14,18)]hexacosa-1(24),2,4,9,14,16,18(26),20,22-nonaene citrate salt” (CTI BioPharma Corp., priority 2009, dated 2015).
Where two headings read alike, the source gives them in different places.

Tests used:
Format in all cases: physicochemical
[1] = Thermogravimetric Analysis (TGA)
Experimental: Thermogravimetric Analysis (TGA) data were collected on a Mettler TGA/SDTA 851e equipped with a 34 position autosampler. The instrument was temperature calibrated using certified indium. Typically 5-30 mg of each sample was loaded onto a pre-weighed aluminium crucible and was heated at 10° C.min^−1 from ambient temperature to 350° C. A nitrogen purge at 50 ml.min^−1 was maintained over the sample. The instrument control and data analysis software was STARe v9.10.

[2] = Differential Scanning Calorimetry (DSC); settings: heated at 10° C.min^−1
Experimental: Differential Scanning Calorimetry (DSC) data were collected on a Mettler DSC 823e equipped with a 34 position auto-sampler. The instrument was calibrated for energy and temperature using certified indium. Typically 0.5-3 mg of each sample, in a pin-holed aluminium pan, was heated at 10° C.min^−1 from 25° C. to 350° C. A nitrogen purge at 50 ml.min^−1 was maintained over the sample. The instrument control and data analysis software was STARe v9.10.

[3] = Phase stability by XRPD after storage at 40° C. and 75% relative humidity for one week; settings: solid form by low resolution XRPD after one week
Experimental: Condition 2 (Low Resolution)
X-Ray Powder Diffraction patterns were also collected on a Bruker D8 diffractometer using Cu K[…] radiation (40 kV, 40 mA), θ-2θ goniometer, and divergence of V4 and receiving slits, a Ge monochromator and a Lynxeye detector. The instrument is performance checked using a certified Corundum standard (NIST 1976). The software used for data collection was Diffrac Plus XRD Commander v2.5.0 and the data were analysed and presented using Diffrac Plus EVA v 11.0.0.2 or v 13.0.0.2. Samples were run under ambient conditions as flat plate specimens using powder as received. Approximately 15 mg of the sample was gently packed into a cavity cut into polished, zerobackground (510) silicon wafer. The sample was rotated in its own plane during analysis. The details of the data collection are:
The samples which had been prepared for the collection of low resolution XRPD traces were placed in a chamber maintained at 40° C. and 75% relative humidity. After one week the samples were reanalysed by low resolution XRPD (Condition 2), to check for phase changes. It can be seen that no phase change has occurred, and that citrate salts of the invention are stable for at least one week under these conditions.

[4] = Solubility assessment (solvent added in 10 volume aliquots); settings: thermodynamic from solid, read-out: Solubility assessment observation
Experimental: For each solvent investigated, approximately 8 mg of compound 1 was weighed into an 8 ml screw top glass vial. The solvent was added in 10 volume aliquots and the mixture sonicated and warmed (with a hot-air gun) to encourage dissolution. If dissolution was not achieved after the addition of 100 volumes of solvent, a further 100 volumes was added.

- Thermogravimetric Analysis weight change ([1]; 160 to 250° C.): −21% w/w 160 to 250 °C
- Thermogravimetric Analysis weight change ([1]; ambient to 160° C.): −0.4% w/w ambient to
- Differential Scanning Calorimetry complex endotherm onset (significant thermal event) [2]: onset 178 °C
- Phase Stability 1 wk @ 40° C./75% RH [3]: Crystalline Form 1
- solubility ([4]; IPA, organic solvent or mixture, IPA, 10 vols): < 100 mg/mL
- solubility ([4]; IPA, organic solvent or mixture, IPA, 20 vols): < 50 mg/mL
- solubility ([4]; IPA, organic solvent or mixture, IPA, 30 vols): < 33.3 mg/mL
- solubility ([4]; IPA, organic solvent or mixture, IPA, 40 vols): < 25 mg/mL
- solubility ([4]; IPA, organic solvent or mixture, IPA, 60 vols): < 16.7 mg/mL
- solubility ([4]; IPA, organic solvent or mixture, IPA, 80 vols): < 12.5 mg/mL
- solubility ([4]; IPA, organic solvent or mixture, IPA, 100 vols): < 10 mg/mL
- solubility ([4]; IPA, organic solvent or mixture, IPA, 200 vols): < 5 mg/mL
- solubility ([4]; MEK, organic solvent or mixture, MEK, 10 vols): < 100 mg/mL
- solubility ([4]; MEK, organic solvent or mixture, MEK, 20 vols): < 50 mg/mL
- solubility ([4]; MEK, organic solvent or mixture, MEK, 30 vols): < 33.3 mg/mL
- solubility ([4]; MEK, organic solvent or mixture, MEK, 40 vols): < 25 mg/mL
- solubility ([4]; MEK, organic solvent or mixture, MEK, 50 vols): < 20 mg/mL
- solubility ([4]; MEK, organic solvent or mixture, MEK, 60 vols): < 16.7 mg/mL
- solubility ([4]; MEK, organic solvent or mixture, MEK, 80 vols): < 12.5 mg/mL
- solubility ([4]; MEK, organic solvent or mixture, MEK, 100 vols): < 10 mg/mL
- solubility ([4]; MEK, organic solvent or mixture, MEK, 200 vols): < 5 mg/mL
- solubility ([4]; THF, organic solvent or mixture, THF, 10 vols): < 100 mg/mL
- solubility ([4]; THF, organic solvent or mixture, THF, 20 vols): < 50 mg/mL
- solubility ([4]; THF, organic solvent or mixture, THF, 30 vols): < 33.3 mg/mL
- solubility ([4]; THF, organic solvent or mixture, THF, 40 vols): < 25 mg/mL
- solubility ([4]; THF, organic solvent or mixture, THF, 60 vols): < 16.7 mg/mL
- solubility ([4]; THF, organic solvent or mixture, THF, 80 vols): < 12.5 mg/mL
- solubility ([4]; THF, organic solvent or mixture, THF, 100 vols): < 10 mg/mL
- solubility ([4]; THF, organic solvent or mixture, THF, 200 vols): < 5 mg/mL
- solubility ([4]; acetone, organic solvent or mixture, Acetone, 10 vols): < 100 mg/mL
- solubility ([4]; acetone, organic solvent or mixture, Acetone, 20 vols): < 50 mg/mL
- solubility ([4]; acetone, organic solvent or mixture, Acetone, 40 vols): < 25 mg/mL
- solubility ([4]; acetone, organic solvent or mixture, Acetone, 60 vols): < 16.7 mg/mL
- solubility ([4]; acetone, organic solvent or mixture, Acetone, 80 vols): < 12.5 mg/mL
- solubility ([4]; acetone, organic solvent or mixture, Acetone, 100 vols): < 10 mg/mL
- solubility ([4]; acetone, organic solvent or mixture, Acetone, 200 vols): < 5 mg/mL
- solubility ([4]; acetonitrile, organic solvent or mixture, Acetonitrile, 10 vols): < 100 mg/mL
- solubility ([4]; acetonitrile, organic solvent or mixture, Acetonitrile, 20 vols): < 50 mg/mL
- solubility ([4]; acetonitrile, organic solvent or mixture, Acetonitrile, 30 vols): < 33.3 mg/mL
- solubility ([4]; acetonitrile, organic solvent or mixture, Acetonitrile, 40 vols): < 25 mg/mL
- solubility ([4]; acetonitrile, organic solvent or mixture, Acetonitrile, 60 vols): < 16.7 mg/mL
- solubility ([4]; acetonitrile, organic solvent or mixture, Acetonitrile, 80 vols): < 12.5 mg/mL
- solubility ([4]; acetonitrile, organic solvent or mixture, Acetonitrile, 100 vols): < 10 mg/mL
- solubility ([4]; acetonitrile, organic solvent or mixture, Acetonitrile, 200 vols): < 5 mg/mL
- solubility ([4]; ethanol, organic solvent or mixture, Ethanol, 10 vols): < 100 mg/mL
- solubility ([4]; ethanol, organic solvent or mixture, Ethanol, 20 vols): < 50 mg/mL
- solubility ([4]; ethanol, organic solvent or mixture, Ethanol, 30 vols): < 33.3 mg/mL
- solubility ([4]; ethanol, organic solvent or mixture, Ethanol, 40 vols): < 25 mg/mL
- solubility ([4]; ethanol, organic solvent or mixture, Ethanol, 60 vols): < 16.7 mg/mL
- solubility ([4]; ethanol, organic solvent or mixture, Ethanol, 80 vols): < 12.5 mg/mL
- solubility ([4]; ethanol, organic solvent or mixture, Ethanol, 100 vols): < 10 mg/mL
- solubility ([4]; ethanol, organic solvent or mixture, Ethanol, 200 vols): < 5 mg/mL
- solubility ([4]; water, Water, 10 vols): > 100 mg/mL
Compound: C1=C2COC/C=C/COCc3cc(ccc3OCCN3CCCC3)Nc3nccc(n3)C(=C1)O2 [Batch 5]
